Experimental data: US3946003A, “Hydroxy substituted phenylglycylamido-3-heterocyclic thiomethyl cephalosporins” (Eli Lilly and Company, priority 1974, dated 1976)
Converted amounts (≈) assume the structure as drawn.

Legend:
[1] = test system: Aerobacter aerogenes; assay: Antibacterial activity, MIC by Gradient-plate technique; type: cell-based; details: for MIC: Klebsiella aerogenes, read-out: Minimum Inhibitory Concentration
Excerpt: (§1) The cephalosporin compounds of this invention (Formula I, R1 =H) are orally effective broad spectrum antibiotics which are useful in controlling infections caused by gram-positive and gram-negative bacteria. […] In Table I, below, the antibacterial activity of the compounds of formula I wherein R1 is hydrogen is illustrated. The bacteria are gram-negative bacteria and the activity is presented as minimum inhibitory concentrations in micrograms per milliliter (mcg./ml.). The activity was obtained by the Gradient-plate technique.

[2] = test system: Escherichia coli; assay: as above; type: cell-based; details: for MIC: read-out: Minimum Inhibitory Concentration
Excerpt: as §1

[3] = test system: Klebsiella pneumoniae; assay: as above; type: cell-based; details: for MIC: read-out: Minimum Inhibitory Concentration
Excerpt: as §1

[4] = test system: Pseudomonas aeruginosa; assay: as above; type: cell-based; details: for MIC: read-out: Minimum Inhibitory Concentration
Excerpt: as §1

[5] = test system: Salmonella heidelberg; assay: as above; type: cell-based; details: for MIC: Salmonella enterica, read-out: Minimum Inhibitory Concentration
Excerpt: as §1

[6] = test system: Serratia marcescens; assay: as above; type: cell-based; details: for MIC: read-out: Minimum Inhibitory Concentration
Excerpt: as §1

[7] = test system: Shigella sp.; assay: as above; type: cell-based; details: for MIC: read-out: Minimum Inhibitory Concentration
Excerpt: as §1

[8] = test system: Diplococcus pneumoniae Park I; assay: Oral therapy of experimental infections in mice; type: in vivo; details: Streptococcus pneumoniae, oral (gavage) at 1 and 5 hours post infection, read-out: Effective Dose (ED50)
Method: (§2) In Table II, the respective effective doses (ED50) for these antibiotics is presented. The data were obtained in mice infected with the indicated microorganism following oral administration of the antibiotics at 1 and 5 hours post infection.
(§3) ^1 mg./kg. × 2 oral doses (gavage) at 1 and 5 hours post

[9] = test system: Escherichia coli EC14; assay: Oral therapy of experimental infections in mice; type: in vivo; details: oral (gavage) at 1 and 5 hours post infection, read-out: Effective Dose (ED50)
Method: as §2, §3

[10] = test system: Proteus mirabilis PR6; assay: Oral therapy of experimental infections in mice; type: in vivo; details: oral (gavage) at 1 and 5 hours post infection, read-out: Effective Dose (ED50)
Method: as §2, §3

[11] = test system: Streptococcus pyogenes C203; assay: Oral therapy of experimental infections in mice; type: in vivo; details: for ED50: Streptococcus pyogenes C203, mice, oral (gavage) at 1 and 5 hours post infection, read-out: Effective Dose (ED50)
Method: as §2, §3

[12] = Duration of antibiotic blood levels in mice after single oral dose (agar disc-plate assay, Sarcina lutea); type: in vivo; details: mouse, single oral dose 20 mg./kg.; for concentration at 10 min: 10 min post administration; for concentration at 20 min: 20 min post administration; for concentration at 0.5 h: 30 min post administration; for concentration at 1 h: 60 min post administration; for concentration at 1.5 h: 90 min post administration; for concentration at 2 h: 120 min post administration; for Cmax: read-out: peak blood level
Method: The determinations were carried out in groups of 3 or 4 mice as indicated in the table and the results averaged. At the indicated time intervals post administration, blood samples were withdrawn at the orbital sinus from each mouse in the test group and assayed for the concentration of antibiotic. […]

[13] = physchem; details: 6% dmf

Row | Molecule | MIC [1] [µg/mL] | MIC [2] [µg/mL] | MIC [3] [µg/mL] | MIC [4] [µg/mL] | MIC [5] [µg/mL] | MIC [6] [µg/mL] | MIC [7] [µg/mL] | ED50 [8] [mg/kg] | ED50 [9] [mg/kg] | ED50 [10] [mg/kg] | ED50 [11] [mg/kg] | concentration at 10 min [12] [ng/mL] | concentration at 20 min [12] [ng/mL] | concentration at 0.5 h [12] [ng/mL] | concentration at 1 h [12] [ng/mL] | concentration at 1.5 h [12] [ng/mL] | concentration at 2 h [12] [ng/mL] | Cmax [12] [ng/mL] | other results
1 | 7β-(D-4-hydroxyphenylglycylamido)-3-(1-methyl-1H-tetrazole-5-ylthiomethyl)-3-cephem-4-carboxylic acid | – | – | – | – | – | – | – | – | – | – | – | – | – | – | – | – | – | – | Minimum Inhibitory Concentration [1]: 0.9 µg/mL; Minimum Inhibitory Concentration [2]: 0.9 µg/mL; Minimum Inhibitory Concentration [3]: 0.6 µg/mL; Minimum Inhibitory Concentration [4]: 120 µg/mL; Minimum Inhibitory Concentration [5]: 0.8 µg/mL; Minimum Inhibitory Concentration [6]: 5.0 µg/mL; Minimum Inhibitory Concentration [7]: 0.8 µg/mL
2 | Cn1nnnc1SCC1=C(C(=O)O)N2C(=O)[C@@H](NC(=O)[C@H](N)c3ccc(O)cc3)[C@H]2SC1 [compound 1, 7β-(4-hydroxyphenylglycylamido)-3-(1-methyl-1H-tetrazole-5-ylthiomethyl)-3-cephem-4-carboxylic acid] | 0.7 (≈ 1.47 µM) | 1 (≈ 2.09 µM) | 1 (≈ 2.09 µM) | > 200 | 0.6 (≈ 1.26 µM) | 12.5 (≈ 26.2 µM) | 0.8 (≈ 1.68 µM) | < 1.1 | 3.7 | < 4.5 | 0.18 | 2560 | 5780 | 8550 | 8880 | 6940 | 5360 | ~8900 | –
3 | Cn1nnnc1SCC1=C(C(=O)O)N2C(=O)C(NC(=O)C(N)c3ccccc3)C2SC1 (stereo not drawn) [compound 2, reference compound] | – | – | – | – | – | – | – | – | 8.4 | – | 4.05 | 260 | 750 | 1170 | 890 | 1090 | – | ~1200 | –
4 | Cc1nnc(SCC2=C(C(=O)O)N3C(=O)[C@@H](NC(=O)[C@H](N)c4ccc(O)cc4)[C@H]3SC2)s1 [compound 3, 7β-(D-4-hydroxyphenylglycylamido)-3-(5-methyl-1,3,4-thiadiazol-2-ylthiomethyl)-3-cephem-4-carboxylic acid] | 1 (≈ 2.03 µM) | 2.5 (≈ 5.06 µM) | 1 (≈ 2.03 µM) | > 200 | 1 (≈ 2.03 µM) | 47.5 (≈ 96.2 µM) | 2 (≈ 4.05 µM) | < 1.1 | 2.1 | < 4.5 | 0.08 | 10600 | 13200 | 13900 | 14300 | 9800 | 5200 | ~14300 | ED50 times lower than that exhibited by compound No. 4 ([11]; S. pyogenes infections in mice, 1.15/0.08): approximately 14 times; ED50 times lower than that exhibited by compound No. 2 ([11]; S. pyogenes infections in mice, 4.05/0.08): approximately 50 times; pKa ([13]; pKa (first)): 4.4; pKa ([13]; pKa (second)): 7.6; pKa ([13]; pKa (third)): 12.2
5 | Cc1nnc(SCC2=C(C(=O)O)N3C(=O)C(NC(=O)C(N)c4ccccc4)C3SC2)s1 (stereo not drawn) [compound 4, reference compound] | – | – | – | – | – | – | – | 5.2 | 6.9 | 20.7 | 1.15 | 1980 | 3380 | 3990 | 2340 | 1610 | – | ~4000 | –
